Values of other authors, collected in PMC8240349 (Journal of Traditional and Complementary Medicine, 2021).

System: CCA
Conditions: cited from earlier work

## CC1=CCC[C@H](C)[C@@]12CC[C@@H](C(C)(C)O)C2 [hinesol]
  activity (anti-CCA): weak activity
